Data reported in patent US8148391B2 (Cephalon, Inc., priority 2006, dated 2012).
Like-named read-outs stand apart in the source and are kept apart here. Values belong to the compound of their own block, whether it stands above or below them.

What was measured:
[1] = molecular target: T1, baculovirus-expressed ALK (Homo sapiens, UniProt Q9UM73); test: ALK Kinase Assay (ELISA-type, time-resolved fluorescence); type: biochemical
T1 construct: host or cells: baculovirus expression system
Outline: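 Wells were coated with phospholipase C-γ at 10 μg/mL in Tris-buffered saline. Adding 30 ng/ml enzyme started the reaction, which ran at 37° C for 15 minutes before Eu-N1 PT66 antibody detection. Percent inhibition versus log10 concentration gave IC50 by variable-slope fit.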

[2] = molecular target: T2, c-Met (cytoplasmic domain) (Homo sapiens, UniProt P08581); test: c-Met Kinase Assay (same methods as for ALK, with modifications); type: biochemical
T2 construct: 10 ng/mL c-Met (cytoplasmic domain, Invitrogen Corporation #PV3143); purchased Invitrogen Corporation PV3143
Outline: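 IC50 values were fitted by variable-slope sigmoidal regression of percent inhibition against log compound concentration. Phosphorylation was read with Eu-N1 PT66 antibody after a 15 min, 37 °C reaction. The reaction was initiated with 10 ng/mL c-Met cytoplasmic domain on wells coated with 10 μg/mL PLC-γ in TBS.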

[3] = ALK kinase inhibition, 1 μM ATP (Km level), read-out: ALK Activity
[4] = c-Met kinase inhibition, 1 μM ATP (Km level), read-out: cMet Activity
[5] = 1 μM ATP (Km level), read-out: ALK Activity (ALK Kinase Inhibition, IC50)
[6] = 1 μM ATP (Km level), read-out: cMet Activity (c-Met Kinase Inhibition, IC50)
[7] = ALK kinase inhibition, 1 μM ATP, read-out: ALK Activity
[8] = c-Met kinase inhibition, 1 μM ATP, read-out: cMet Activity
[9] = 1 μM ATP (Km level), 30 ng/ml ALK, 37° C., 15 minutes, read-out: ALK Activity (ALK kinase inhibition, IC50 class)
[10] = 1 μM ATP (Km level), 10 ng/mL c-Met, read-out: cMet Activity (c-Met kinase inhibition, IC50 class)

T1 sequence (Q9UM73 19-1620): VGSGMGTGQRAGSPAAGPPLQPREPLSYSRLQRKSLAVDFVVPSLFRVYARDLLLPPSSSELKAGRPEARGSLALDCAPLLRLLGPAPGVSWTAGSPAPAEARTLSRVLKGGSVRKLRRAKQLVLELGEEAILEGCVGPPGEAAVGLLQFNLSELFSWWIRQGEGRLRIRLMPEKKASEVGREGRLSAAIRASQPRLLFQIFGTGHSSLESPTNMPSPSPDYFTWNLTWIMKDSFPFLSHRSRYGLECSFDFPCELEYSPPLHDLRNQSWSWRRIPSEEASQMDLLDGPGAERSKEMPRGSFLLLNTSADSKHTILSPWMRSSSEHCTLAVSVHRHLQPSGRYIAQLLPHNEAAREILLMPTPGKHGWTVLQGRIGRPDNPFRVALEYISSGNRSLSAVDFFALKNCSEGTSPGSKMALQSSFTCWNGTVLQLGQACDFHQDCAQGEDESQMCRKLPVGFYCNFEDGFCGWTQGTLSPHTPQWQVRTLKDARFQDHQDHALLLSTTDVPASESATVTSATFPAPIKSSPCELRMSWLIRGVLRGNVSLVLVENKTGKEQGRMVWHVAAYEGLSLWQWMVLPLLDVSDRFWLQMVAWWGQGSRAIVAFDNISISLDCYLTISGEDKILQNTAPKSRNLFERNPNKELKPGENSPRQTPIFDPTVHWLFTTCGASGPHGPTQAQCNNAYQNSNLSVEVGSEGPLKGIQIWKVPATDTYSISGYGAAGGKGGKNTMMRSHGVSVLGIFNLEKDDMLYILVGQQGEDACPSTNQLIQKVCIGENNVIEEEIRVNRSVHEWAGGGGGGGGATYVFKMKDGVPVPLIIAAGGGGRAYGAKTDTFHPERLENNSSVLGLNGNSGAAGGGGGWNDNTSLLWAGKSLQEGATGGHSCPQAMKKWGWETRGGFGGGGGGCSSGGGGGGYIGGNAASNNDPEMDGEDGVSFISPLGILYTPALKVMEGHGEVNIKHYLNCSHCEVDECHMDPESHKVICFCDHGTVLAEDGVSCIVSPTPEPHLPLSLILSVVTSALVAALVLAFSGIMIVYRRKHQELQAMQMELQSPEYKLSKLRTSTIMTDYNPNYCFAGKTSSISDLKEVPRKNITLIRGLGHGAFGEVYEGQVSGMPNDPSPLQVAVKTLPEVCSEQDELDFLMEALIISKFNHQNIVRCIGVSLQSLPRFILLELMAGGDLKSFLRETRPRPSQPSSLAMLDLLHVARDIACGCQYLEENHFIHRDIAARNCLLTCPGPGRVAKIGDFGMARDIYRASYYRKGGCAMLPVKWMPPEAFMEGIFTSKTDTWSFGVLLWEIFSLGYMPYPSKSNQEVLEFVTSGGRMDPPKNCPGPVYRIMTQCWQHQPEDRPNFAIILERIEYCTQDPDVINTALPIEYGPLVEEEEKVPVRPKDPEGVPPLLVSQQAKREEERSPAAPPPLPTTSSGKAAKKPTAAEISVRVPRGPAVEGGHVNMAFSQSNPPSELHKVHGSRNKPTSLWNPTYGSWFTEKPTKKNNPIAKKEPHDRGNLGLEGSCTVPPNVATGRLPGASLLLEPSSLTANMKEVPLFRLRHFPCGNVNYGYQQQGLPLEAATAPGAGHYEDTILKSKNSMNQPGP
T2 sequence (P08581 956-1390 limits assumed): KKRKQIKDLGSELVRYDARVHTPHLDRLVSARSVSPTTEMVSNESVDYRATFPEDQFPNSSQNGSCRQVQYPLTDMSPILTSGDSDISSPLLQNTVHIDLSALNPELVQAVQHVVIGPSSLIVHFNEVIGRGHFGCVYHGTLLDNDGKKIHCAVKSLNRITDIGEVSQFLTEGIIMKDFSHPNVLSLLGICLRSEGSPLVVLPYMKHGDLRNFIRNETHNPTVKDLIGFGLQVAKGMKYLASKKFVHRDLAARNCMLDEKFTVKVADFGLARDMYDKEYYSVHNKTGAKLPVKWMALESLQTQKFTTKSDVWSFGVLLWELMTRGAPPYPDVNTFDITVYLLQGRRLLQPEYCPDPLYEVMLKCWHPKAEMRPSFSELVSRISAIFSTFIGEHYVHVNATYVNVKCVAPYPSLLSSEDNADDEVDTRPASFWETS

Compound: CN(C)C(=O)N1CCN(C)c2cc(Nc3ncc(Cl)c(N[C@@H]4CCCC[C@H]4NS(C)(=O)=O)n3)ccc2C1 [Example 481, 8-[5-Chloro-4-((1R,2R)-2-methanesulfonylamino-cyclohexylamino)-pyrimidin-2-ylamino]-1-methyl-1,2,3,5-tetrahydro-benzo[e][1,4]diazepine-4-carboxylic acid dimethylamide]
IC50 [1, 3]: < 100 nM | IC50 [2, 4]: 1000 to 10000 nM

Compound: CCN1CCc2cc(Nc3ncc(Cl)c(Nc4ccc(N5CCOCC5)cc4OC)n3)c(OC)cc2CC1=O [Example 254, 7-[5-Chloro-4-(2-methoxy-4-morpholin-4-yl-phenylamino)-pyrimidin-2-ylamino]-3-ethyl-8-methoxy-1,3,4,5-tetrahydro-benzo[d]azepin-2-one]
IC50 [1, 3]: < 100 nM | IC50 [2, 4]: > 10000 nM

Compound: CNC(=O)c1cccc(C)c1Nc1nc(Nc2ccc3c(c2)N(CCOC)C(=O)CCC3)ncc1Cl [Example 361, 2-{5-Chloro-2-[1-(2-methoxy-ethyl)-2-oxo-2,3,4,5-tetrahydro-1H-benzo[b]azepin-8-ylamino]-pyrimidin-4-ylamino}-3,N-dimethyl-benzamide]
IC50 [1, 3]: 1000 to 10000 nM | IC50 [2, 4]: < 100 nM

Compound: COc1cc2c(cc1Nc1ncc(Cl)c(Nc3ccc(Cl)cc3S(=O)(=O)N(C)C)n1)CCN(CCO)CC2 [Example 840, 5-Chloro-2-{5-chloro-2-[3-(2-hydroxy-ethyl)-8-methoxy-2,3,4,5-tetrahydro-1H-benzo[d]azepin-7-ylamino]-pyrimidin-4-ylamino}-N,N-dimethyl-benzenesulfonamide]
IC50 [1, 5]: < 100 nM | IC50 [2, 6]: > 10000 nM

Compound: COc1cc(N2CCOCC2)ccc1Nc1nc(Nc2ccc3c(c2OC)CCC(N2CCCC(O)C2)CC3)ncc1Cl (mixture of isomers) [Example 913, 1-{2-[5-Chloro-4-(2-methoxy-4-morpholin-4-yl-phenylamino)-pyrimidin-2-ylamino]-1-methoxy-6,7,8,9-tetrahydro-5H-benzocyclohepten-7-yl}-piperidin-3-ol]
IC50 [1, 5]: < 100 nM | IC50 [2, 6]: > 10000 nM

Compound: COc1ccc(Nc2nc(Nc3ccc4c(c3)CCC(N3CCOCC3)CC4)ncc2Cl)c(-n2cccn2)c1 (stereo not shown) [Example 622, 5-Chloro-N*4*-(4-methoxy-2-pyrazol-1-yl-phenyl)-N*2*-(7-morpholin-4-yl-6,7,8,9-tetrahydro-5H-benzocyclohepten-2-yl)-pyrimidine-2,4-diamine]
IC50 [1, 5]: < 100 nM | IC50 [2, 6]: 1000 to 10000 nM

Compound: CS(=O)(=O)N[C@@H]1CCCC[C@H]1Nc1nc(Nc2ccc3c(c2)CNCCS3)ncc1Cl [Example 519, N-{(1R,2R)-2-[5-Chloro-2-(6,7,8,9-tetrahydro-5-thia-8-aza-benzocyclohepten-2-ylamino)-pyrimidin-4-ylamino]-cyclohexyl}-methanesulfonamide]
IC50 [1, 5]: < 100 nM | IC50 [2, 6]: 1000 to 10000 nM

Compound: CNC(=O)CN1CCc2cc(Nc3ncc(Cl)c(Nc4ccc(N5CCN(C)CC5)c(C)c4)n3)c(OC)cc2CC1 [Example 798, 2-(7-{5-Chloro-4-[3-methyl-4-(4-methyl-piperazin-1-yl)-phenylamino]-pyrimidin-2-ylamino}-8-methoxy-1,2,4,5-tetrahydro-benzo[d]azepin-3-yl)-N-methyl-acetamide]
IC50 [1, 5]: < 100 nM | IC50 [2, 6]: > 10000 nM

Compound: NC(=O)C1C2C=CC(C2)C1Nc1nc(Nc2ccc3c(c2)CCN(CC(O)C(F)(F)F)CC3)ncc1Cl (mixture of isomers) [Example 334, (2-exo, 3-exo)-3-{5-Chloro-2-[3-((R)-3,3,3-trifluoro-2-hydroxy-propyl)-2,3,4,5-tetrahydro-1H-benzo[d]azepin-7-ylamino]-pyrimidin-4-ylamino}-bicyclo[2.2.1]hept-5-ene-2-carboxylic acid amide]
IC50 [1, 3]: < 100 nM | IC50 [2, 4]: 100 to 1000 nM

Compound: CN1CCN(C2CCN(C3CCc4ccc(Nc5ncc(Cl)c(N[C@@H]6CCCC[C@H]6NS(C)(=O)=O)n5)cc4CC3)CC2)CC1 (stereo partly drawn) [Example 886, N-[(1R,2R)-2-(5-Chloro-2-{7-[4-(4-methyl-piperazin-1-yl)-piperidin-1-yl]-6,7,8,9-tetrahydro-5H-benzocyclohepten-2-ylamino}-pyrimidin-4-ylamino)-cyclohexyl]-methanesulfonamide]
IC50 [1, 5]: < 100 nM | IC50 [2, 6]: 1000 to 10000 nM

Compound: CCNC(=O)c1ccccc1Nc1nc(Nc2cc3c(cc2OC)CCN(CC(=O)N(C)C)CC3)ncc1Cl [Example 262, 2-[5-Chloro-2-(3-dimethylcarbamoylmethyl-8-methoxy-2,3,4,5-tetrahydro-1H-benzo[d]azepin-7-ylamino)-pyrimidin-4-ylamino]-N-ethyl-benzamide]
IC50 [1, 3]: < 100 nM | IC50 [2, 4]: 1000 to 10000 nM

Results, then the compound that gave them:

IC50 [1, 7]: < 100 nM | IC50 [2, 8]: 100 to 1000 nM
Compound: CNC(=O)c1ccccc1Nc1nc(Nc2cc3c(cc2OC)N(C)C(=O)OCC3)ncc1Br [Example 1507, 2-[5-Bromo-2-(3-methoxy-5-methyl-6-oxo-5,6,8,9-tetrahydro-7-oxa-5-aza-benzocyclohepten-2-ylamino)-pyrimidin-4-ylamino]-N-methyl-benzamide]

IC50 [1, 9]: 100 to 1000 nM | IC50 [2, 10]: 1000 to 10000 nM
Compound: 5-Chloro-N(4)-(2-fluoro-6-methanesulfonyl-phenyl)-(2-fluoro-6-methanesulfonyl-phenyl)2,3,4,5-tetrahydro-1H-3-benzazepin-7-yl]-pyrimidine-2,4-diamine [Example 1262]

IC50 [1, 7]: > 10000 nM | IC50 [2, 8]: 1000 to 10000 nM
Compound: CNC(=O)c1ccccc1N(C)c1nc(Nc2ccc3c(c2)CCOC(=O)N3C)ncc1F [Example 1765, 2-{[5-Fluoro-2-(5-methyl-6-oxo-5,6,8,9-tetrahydro-7-oxa-5-aza-benzocyclohepten-2-ylamino)-pyrimidin-4-yl]-methyl-amino}-N-methyl-benzamide]

IC50 [1, 9]: < 100 nM | IC50 [2, 10]: > 10000 nM
Compound: CCN1C(=O)[C@@H](NC(=O)C2CC2)CCc2c1ccc(Nc1ncc(Cl)c(N[C@H]3[C@@H](C(N)=O)[C@@H]4C=C[C@H]3C4)n1)c2OC (single isomer, unassigned) [Example 1358]

IC50 [1, 9]: < 100 nM | IC50 [2, 10]: > 10000 nM
Compound: COc1cc2c(cc1Nc1ncc(Cl)c(Nc3ccc(C(N)=O)cc3OC)n1)CCN(CCS(C)(=O)=O)CC2 [Example 1161, 4-{5-Chloro-2-[3-(2-methanesulfonyl-ethyl)-8-methoxy-2,3,4,5-tetrahydro-1H-benzo[d]azepin-7-ylamino]-pyrimidin-4-ylamino}-3-methoxy-benzamide]

IC50 [1, 9]: 100 to 1000 nM | IC50 [2, 10]: < 100 nM
Compound: C#CCNC(=O)c1cccc(F)c1Nc1nc(Nc2ccc3c(c2)NC(=O)C(NC(=O)N2CCCC2)CC3(C)C)ncc1Cl (stereo not shown) [Example 1296, Pyrrolidine-1-carboxylic acid {8-[5-chloro-4-(2-fluoro-6-prop-2-ynylcarbamoyl-phenylamino)-pyrimidin-2-ylamino]-5,5-dimethyl-2-oxo-2,3,4,5-tetrahydro-1H-1-benzazepin-3-yl}-amide]

IC50 [1, 5]: < 100 nM | IC50 [2, 6]: < 100 nM
Compound: COCCN1CCc2ccc(Nc3ncc(Cl)c(Nc4c(F)cccc4OCC#N)n3)cc2CC1 [Example 931, (2-{5-Chloro-2-[3-(2-methoxy-ethyl)-2,3,4,5-tetrahydro-1H-3-benzazepin-7-ylamino]-pyrimidin-4-ylamino}-3-fluoro-phenoxy)-acetonitrile]

IC50 [1, 7]: < 100 nM | IC50 [2, 8]: < 100 nM
Compound: CCN1CCCOc2cc(Nc3ncc(Cl)c(Nc4c(F)cccc4C(=O)NC)n3)c(F)cc21 [Example 1691, 2-[5-Chloro-2-(9-ethyl-2-fluoro-6,7,8,9-tetrahydro-5-oxa-9-aza-benzocyclohepten-3-ylamino)-pyrimidin-4-ylamino]-3-fluoro-N-methyl-benzamide]

IC50 [1, 9]: < 100 nM | IC50 [2, 10]: 1000 to 10000 nM
Compound: COCCNC1CCc2cc(Nc3ncc(Cl)c(Nc4ccccc4S(=O)(=O)C(C)C)n3)c(OC)cc2CC1 (stereo not shown) [Example 1084, 5-Chloro-N*2*-[3-methoxy-7-(2-methoxy-ethylamino)-6,7,8,9-tetrahydro-5H-benzocyclohepten-2-yl]-N*4*-[2-(propane-2-sulfonyl)-phenyl]-pyrimidine-2,4-diamine]

IC50 [1, 5]: < 100 nM | IC50 [2, 6]: 1000 to 10000 nM
Compound: CNC(=O)c1ccccc1Nc1nc(Nc2ccc3c(c2OC)CCC(N2CCOCC2)CC3)ncc1Cl (racemic) [Example 915, 2-[5-Chloro-2-(1-methoxy-7-morpholin-4-yl-6,7,8,9-tetrahydro-5H-benzocyclohepten-2-ylamino)-pyrimidin-4-ylamino]-N-methyl-benzamide]

IC50 [1, 7]: < 100 nM | IC50 [2, 8]: < 100 nM
Compound: CCNC(=O)c1cccc(F)c1Nc1nc(Nc2ccc3c(c2)N(CC)C(=O)CCC3(C)C)ncc1Cl [Example 1579, 2-[5-Chloro-2-(1-ethyl-5,5-dimethyl-2-oxo-2,3,4,5-tetrahydro-1H-benzo[b]azepin-8-ylamino)-pyrimidin-4-ylamino]-N-ethyl-3-fluoro-benzamide]

IC50 [1, 9]: < 100 nM | IC50 [2, 10]: 100 to 1000 nM
Compound: CN(C)C(=O)CN1CCc2ccc(Nc3ncc(Cl)c(N[C@@H]4CCCC[C@H]4NS(C)(=O)=O)n3)cc2CC1 [Example 1371, 2-{7-[5-Chloro-4-((1R,2R)-2-methanesulfonylamino-cyclohexylamino)-pyrimidin-2-ylamino]-1,2,4,5-tetrahydro-benzo[d]azepin-3-yl}-N,N-dimethyl-acetamide]
